According to publication doi:10.1101/620765v2 (biorxiv, 2019):
Read-outs that look alike come from different tables or passages of the source.

How the values were obtained:
[1] = target: T1, human αVβ3 expressed in HEK-293 cells (HEK-αVβ3) (Homo sapiens, UniProt P05106+P06756); test: exposure of mAb AP5; format: cell-based
[2] = target: T1, human αVβ3 expressed in HEK-293 cells (HEK-αVβ3); test: inhibition of HEK-αVβ[…] cell adhesion to immobilized fibrinogen; format: cell-based
[3] = target: T1, human αVβ3 expressed in HEK-293 cells (HEK-αVβ3); test: inhibition of HEK-αVβ[…] cell adhesion to fibronectin; format: cell-based
[4] = target: T2, purified αVβ5 (R&D Systems) (Homo sapiens, UniProt P06756+P18084); test: inhibition of binding of purified αVβ[…] to immobilized vitronectin, plate assay
[5] = target: T1, human αVβ3 expressed in HEK-293 cells (HEK-αVβ3); test: cell-based; set-up: species or system HEK-293 expressing human αVβ3
[6] = target: purified human αVβ3 (R&D Systems) (Homo sapiens, UniProt P05106+P06756); test: biochemical
[7] = target: T2, purified αVβ5 (R&D Systems); conditions: read-out: IC50 (μM) purified αVβ5 binding to vitronectin; antagonist

| EC50 [1] | IC50 [2] | Structure (SMILES) | also measured |
| --- | --- | --- | --- |
| 12 nM | 3 nM | COc1ccc(C(CC(=O)O)N2CCN(CCCc3ccc4c(n3)NCCC4)C2=O)cn1 (racemic) [A, TDI-806] | – |
| – | – | O=C(CCCCc1ccc2c(n1)NCCC2)NCCC(Nc1nc2ccccc2o1)C(=O)O (racemic) [E, TDI-3761] | IC50 [3]: 79 ± 10 nM; IC50 [4]: 875 ± 348 nM; IC50 [5]: 172 ± 66 nM; IC50 [6]: 0.049 ± 0.05 µM |
| – | 49 ± 16 nM | O=C(CCCCc1ccc2c(n1)NCCC2)NCCC(NC(=O)c1nc2ccccc2s1)C(=O)O (racemic) [F, TDI-3909] | – |
| – | – | COc1ccc(C(CC(=O)O)N2CCN(CCCc3ccc4c(n3)NCCC4)C2=O)cn1 (racemic) [MK-429 racemate] | IC50 ([6]; read-out: IC50 (μM) purified αVβ3 binding to penton base, antagonist): 0.011 ± 0.005 µM; IC50 [7]: 0.035 ± 0.019 µM |
| > 10000 nM | 756 ± 607 nM | O=C(O)CCNC(=O)CCCCc1ccc2c(n1)NCCC2 [C, TDI-1367] | – |
| > 10000 nM | 1020 nM | O=C(O)CCCNC(=O)CCCCc1ccc2c(n1)NCCC2 [D, TDI-2668] | – |
| – | – | O=C(CCCCc1ccc2c(n1)NCCC2)NCC[C@H](NC(=O)c1nc2ccccc2s1)C(=O)O [G, TDI-4161] | IC50 [3]: 42 ± 21 nM; IC50 [4]: 689 ± 374 nM; IC50 [6]: 0.012 ± 0.005 µM |
| > 10000 nM | 123 ± 55 nM | O=C(CCCCc1ccc2c(n1)NCCC2)NCC[C@@H](Nc1nc2ccccc2o1)C(=O)O [TDI-4158] | – |
| > 10000 nM | – | O=C(CCCCc1ccc2c(n1)NCCC2)NCC[C@H](Nc1nc2ccccc2o1)C(=O)O [TDI-4160] | IC50 ([2]; 1 mM Mg2+, 2 mM Ca2+, pH 7.4, room temperature): 185 ± 42 nM |
